Values quoted from earlier work, collected in patent publication US20060177860A1, “Genetic markers in the HLA-DQBI gene associated with an adverse hematological response to drugs” (priority 2005, published 2006).

Conditions: as taught by U.S. Pat. No. 5,312,819

In the case of O=C1O[C@H]([C@@H](O)CO)C(O)=C1O [L-ascorbic acid], the “effect of radical scavenger on formation of free radicals of clozapine” value is given as “reduces the formation of free radicals of clozapine”.
